Results taken from US20240336608A1, “IL4I1 INHIBITORS AND METHODS OF USE” (Merck Sharp & Dohme LLC, priority 2023, published 2024).

Target: T1, recombinant IL4I1 (Homo sapiens, UniProt Q96RQ9)
T1 construct: purchased R&D Systems 5684-AO-020
T1 sequence (Q96RQ9 22-567): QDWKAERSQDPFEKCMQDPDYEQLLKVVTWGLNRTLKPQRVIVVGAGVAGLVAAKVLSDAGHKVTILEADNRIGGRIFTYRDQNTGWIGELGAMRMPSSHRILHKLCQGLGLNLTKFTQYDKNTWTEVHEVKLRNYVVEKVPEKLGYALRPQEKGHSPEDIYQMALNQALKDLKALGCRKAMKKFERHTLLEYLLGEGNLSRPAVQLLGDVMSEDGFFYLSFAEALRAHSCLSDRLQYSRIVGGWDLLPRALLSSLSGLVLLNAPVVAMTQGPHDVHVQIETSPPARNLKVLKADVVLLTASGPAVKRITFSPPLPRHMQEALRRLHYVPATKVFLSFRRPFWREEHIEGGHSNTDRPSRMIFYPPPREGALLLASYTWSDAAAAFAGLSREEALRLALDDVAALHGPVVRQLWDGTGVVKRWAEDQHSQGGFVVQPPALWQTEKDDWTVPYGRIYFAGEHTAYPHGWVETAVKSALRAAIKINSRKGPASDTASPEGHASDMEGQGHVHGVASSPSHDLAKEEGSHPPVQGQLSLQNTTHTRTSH
Assay: IL4I1 Enzymatic Assay (Amplex Red/HRP coupled detection of H2O2, fluorescence)
Format: biochemical
Details: 1 nM recombinant IL4I1; four-hour pre-incubation with compound; 1 mM each Phe, Tyr, Trp; ten-point titration
Summary of the method: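 Recombinant IL4I1 (1 nM final) pre-incubated 4 h at ambient temperature with compound (0.5% DMSO) in 50 mM Hepes pH 7.0, 0.005% Tween20; reaction started with 1 mM each Phe/Tyr/Trp plus excess Amplex Red/HRP, run 120 min. H2O2 read as resorufin fluorescence; EC50 from 10-point four-parameter fit.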

Structure (SMILES) | EC50 [nM]
Cc1[nH]nc(C(=O)NCc2nnc(-c3ccccc3)s2)c1F [Example 46, 4-fluoro-5-methyl-N-[(5-phenyl-1,3,4-thiadiazol-2-yl)methyl]-1H-pyrazole-3-carboxamide] | 92
O=C(NCc1nnc(-c2ccccc2)s1)c1c[nH]c(C2CC2)n1 [Example 11, 2-cyclopropyl-N-((5-phenyl-1,3,4-thiadiazol-2-yl)methyl)-1H-imidazole-4-carboxamide] | 265
Cn1cc(C(=O)NCc2nnc(-c3cn[nH]c3)s2)nn1 [Example 299, N-((5-(1H-pyrazol-4-yl)-1,3,4-thiadiazol-2-yl)methyl)-1-methyl-1H-1,2,3-triazole-4-carboxamide] | 215
O=C(NCc1nnc(-c2ccccc2)s1)c1cn(CCCC(F)(F)F)nn1 [Example 98, N-((5-phenyl-1,3,4-thiadiazol-2-yl)methyl)-1-(4,4,4-trifluorobutyl)-1H-1,2,3-triazole-4-carboxamide] | 272
CCC(C)Cn1cc(C(=O)NCc2nnc(-c3ccccc3)s2)nn1 (stereo not shown) [Example 89, 1-(2-methylbutyl)-N-((5-phenyl-1,3,4-thiadiazol-2-yl)methyl)-1H-1,2,3-triazole-4-carboxamide] | 37
CC(C)(C)c1cc(C(=O)NCc2nnc(-c3ccccc3)s2)[nH]n1 [Example 9, 3-(tert-butyl)-N-((5-phenyl-1,3,4-thiadiazol-2-yl)methyl)-1H-pyrazole-5-carboxamide] | 480
CC(=O)N1CC(n2cc(C(=O)NCc3nnc(-c4ccccc4)s3)nn2)C1 [Example 102, 1-(1-acetylazetidin-3-yl)-N-((5-phenyl-1,3,4-thiadiazol-2-yl)methyl)-1H-1,2,3-triazole-4-carboxamide] | 296
O=C(NCc1nnc(-c2ccccc2)s1)c1cn(CC2CCCO2)nn1 (stereo not shown) [Example 79, N-((5-phenyl-1,3,4-thiadiazol-2-yl)methyl)-1-((tetrahydrofuran-2-yl)methyl)-1H-1,2,3-triazole-4-carboxamide] | 110
CNC(=O)C1(n2cc(C(=O)NCc3nnc(-c4ccccc4)s3)nn2)CC1 [Example 162, 1-(1-(methylcarbamoyl)cyclopropyl)-N-((5-phenyl-1,3,4-thiadiazol-2-yl)methyl)-1H-1,2,3-triazole-4-carboxamide] | 120
O=C(NCc1nnc(-c2ccccc2)s1)c1cc(C2CC2)n[nH]1 [Example 33, 3-cyclopropyl-N-[(5-phenyl-1,3,4-thiadiazol-2-yl)methyl]-1H-pyrazole-5-carboxamide] | 170
O=C(NCc1nnc(-c2ccccc2)s1)c1cn(CC2(O)CCC2)nn1 [Example 137, 1-((1-hydroxycyclobutyl)methyl)-N-((5-phenyl-1,3,4-thiadiazol-2-yl)methyl)-1H-1,2,3-triazole-4-carboxamide] | 574
CC(C#N)n1cc(C(=O)NCc2cc(-c3ccncc3)no2)nn1 (single isomer, unassigned) [Example 285, 1-(1-cyanoethyl)-N-((3-(pyridin-4-yl)isoxazol-5-yl)methyl)-1H-1,2,3-triazole-4-carboxamide] | 184
CS(=O)(=O)Cn1cc(C(=O)NCc2nnc(-c3ccccc3)s2)nn1 [Example 308, 1-((methylsulfonyl)methyl)-N-((5-phenyl-1,3,4-thiadiazol-2-yl)methyl)-1H-1,2,3-triazole-4-carboxamide] | 75
O=C(NCc1nnc(-c2ccccc2)s1)c1cn([C@@H]2C[C@@H]2C(F)F)nn1 (single isomer, unassigned) [Example 146, cis-1-(-2-(difluoromethyl)cyclopropyl]-N-[(5-phenyl-1,3,4-thiadiazol-2-yl)methyl]-1H-1,2,3-triazole-4-carboxamide] | 244
O=C(NCc1nnc(-c2ccccc2)s1)c1cc(C(F)(F)F)n[nH]1 [Example 28, N-[(5-phenyl-1,3,4-thiadiazol-2-yl)methyl]-3-(trifluoromethyl)-1H-pyrazole-5-carboxamide] | 710
Cc1ccc(-n2cc(C(=O)NCc3nnc(-c4ccccc4)s3)nn2)c(N)n1 [Example 340, 1-(2-amino-6-methylpyridin-3-yl)-N-((5-phenyl-1,3,4-thiadiazol-2-yl)methyl)-1H-1,2,3-triazole-4-carboxamide] | 36

Now those with a lower EC50, led by results:

EC50 [nM] | Structure (SMILES)
29 | O=C(NCc1nnc(-c2ccccc2)s1)c1cn(CC2(O)CC2)nn1 [Example 136, 1-((1-hydroxycyclopropyl)methyl)-N-((5-phenyl-1,3,4-thiadiazol-2-yl)methyl)-1H-1,2,3-triazole-4-carboxamide]
24 | Cc1ccc(-n2cc(C(=O)NCc3ccc(-c4cccs4)nn3)nn2)c(C)n1 [Example 121, 1-(2,6-dimethylpyridin-3-yl)-N-((6-(thiophen-2-yl)pyridazin-3-yl)methyl)-1H-1,2,3-triazole-4-carboxamide]
14 | O=C(NCc1nnc(-c2ccccc2)s1)c1cn(C2COC2)nn1 [Example 67, 1-(oxetan-3-yl)-N-((5-phenyl-1,3,4-thiadiazol-2-yl)methyl)-1H-1,2,3-triazole-4-carboxamide]
12 | COc1ccc(-n2cc(C(=O)NCc3nnc(-c4ccccc4)s3)nn2)cn1 [Example 236, 1-(6-methoxypyridin-3-yl)-N-((5-phenyl-1,3,4-thiadiazol-2-yl)methyl)-1H-1,2,3-triazole-4-carboxamide]
10 | Cc1nc(C#N)ccc1-n1cc(C(=O)NCc2nnc(-c3ccccc3)s2)nn1 [Example 335, 1-(6-cyano-2-methylpyridin-3-yl)-N-((5-phenyl-1,3,4-thiadiazol-2-yl)methyl)-1H-1,2,3-triazole-4-carboxamide]
10 | O=C(NCc1nnc(-c2ccccc2)s1)c1cn(CCC(F)F)nn1 [Example 171, 1-(3,3-difluoropropyl)-N-((5-phenyl-1,3,4-thiadiazol-2-yl)methyl)-1H-1,2,3-triazole-4-carboxamide]
8 | CC(C(N)=O)n1cc(C(=O)NCc2nnc(-c3ccccc3)s2)nn1 (single isomer, unassigned) [Example 319, 1-(1-amino-1-oxopropan-2-yl)-N-((5-phenyl-1,3,4-thiadiazol-2-yl)methyl)-1H-1,2,3-triazole-4-carboxamide]
7 | C[C@@H](C(F)F)n1cc(C(=O)NCc2nnc(-c3ccccc3)s2)nn1 [Example 167, (S)-1-(1,1-difluoropropan-2-yl)-N-((5-phenyl-1,3,4-thiadiazol-2-yl)methyl)-1H-1,2,3-triazole-4-carboxamide]
5 | NC(=O)Cn1cc(C(=O)NCc2nnc(-c3ccccc3)s2)nn1 [Example 70, 1-(2-amino-2-oxoethyl)-N-((5-phenyl-1,3,4-thiadiazol-2-yl)methyl)-1H-1,2,3-triazole-4-carboxamide]
3 | CCn1cc(C(=O)NCc2nnc(-c3ccccc3)s2)nn1 [Example 72, 1-ethyl-N-((5-phenyl-1,3,4-thiadiazol-2-yl)methyl)-1H-1,2,3-triazole-4-carboxamide]
3 | CCCn1cc(C(=O)NCc2nnc(-c3ccccc3)s2)nn1 [Example 92, N-((5-phenyl-1,3,4-thiadiazol-2-yl)methyl)-1-propyl-1H-1,2,3-triazole-4-carboxamide]
3 | CCCc1cc(C(=O)NCc2nnc(-c3ccccc3)s2)no1 [Example 39, N-[(5-phenyl-1,3,4-thiadiazol-2-yl)methyl]-5-propyl-isoxazole-3-carboxamide]
